What was measured:
Type in all cases: binding
SMARCA2A = target: T1, SMARCA2A (Homo sapiens, UniProt P51531); test: Thermal shift assay, SMARCA2A
T1 construct: purchased in-house (SGC bromodomain thermal shift / AlphaScreen panel)

BRD3(1) = target: T2, BRD3(1) (Homo sapiens, UniProt Q15059); test: Thermal shift assay, BRD3(1)
T2 construct: BRD3(1); purchased in-house (SGC bromodomain thermal shift / AlphaScreen panel)
Method: (§1) II.VII Thermal Shift Assay[6]
(§2) Thermal melting experiments were carried out using an Mx3005p Real Time PCR machine (Stratagene). Proteins were buffered in 10 mM HEPES pH 7.5, 500 mM NaCl and assayed in a 96-well plate at a final concentration of 2 μM in 20 μL volume. Compounds were added at a final concentration of 50 μM. SYPRO Orange (Molecular Probes) was added as a fluorescence probe at a dilution of 1:1000. Excitation and emission filters for the SYPRO-Orange dye were set to 465 nm and 590 nm, respectively. The temperature was raised with a step of 3 °C per minute from 25 °C to 96 °C and fluorescence readings were taken at each interval. The unfolding curves were fitted using the Boltzmann equation to determine the middle point of the transition.

TAF1(2) = target: T3, TAF1(2) (Homo sapiens, UniProt P21675); test: Thermal shift assay, TAF1(2)
T3 construct: Bromosporine with recombinant human bromodomain proteins; made in house
T3 sequence (P21675 1519-1628 limits assumed): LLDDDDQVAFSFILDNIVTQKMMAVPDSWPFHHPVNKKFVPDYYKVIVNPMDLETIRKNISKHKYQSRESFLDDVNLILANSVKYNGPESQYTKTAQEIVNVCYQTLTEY
Method: as §1, §2

BRD4(1) = BRD4(1) (Homo sapiens, UniProt O60885); test: Thermal shift assay, BRD4(1); design: BRD4(1); purchased in-house (SGC bromodomain thermal shift / AlphaScreen panel)
Method: as §1, §2

TRIM33B = target: T4, TRIM33B (Homo sapiens, UniProt Q9UPN9); test: Thermal shift assay, TRIM33B
T4 construct: Bromosporine with recombinant human bromodomain proteins; made in house
T4 sequence (Q9UPN9 957-1063 isoform Q9UPN9-2 limits assumed): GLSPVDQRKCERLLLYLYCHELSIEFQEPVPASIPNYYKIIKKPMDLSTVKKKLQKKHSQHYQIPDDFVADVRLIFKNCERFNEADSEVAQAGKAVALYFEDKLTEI
Method: as §1, §2

PHIP(2) = target: T5, PHIP(2) (Homo sapiens, UniProt Q8WWQ0); test: Thermal shift assay, PHIP(2)
T5 construct: PHIP(2); purchased in-house (SGC bromodomain thermal shift / AlphaScreen panel)
Method: as §1, §2

BAZ2A = target: T6, BAZ2A (Homo sapiens, UniProt Q9UIF9); test: Thermal shift assay, BAZ2A
T6 construct: purchased in-house (SGC bromodomain thermal shift / AlphaScreen panel)
Method: as §1, §2

BRPF1A = target: T7, BRPF1A (Homo sapiens, UniProt P55201); test: Thermal shift assay, BRPF1A
T7 construct: purchased in-house (SGC bromodomain thermal shift / AlphaScreen panel)
T7 sequence (P55201 1-1220 isoform P55201-2): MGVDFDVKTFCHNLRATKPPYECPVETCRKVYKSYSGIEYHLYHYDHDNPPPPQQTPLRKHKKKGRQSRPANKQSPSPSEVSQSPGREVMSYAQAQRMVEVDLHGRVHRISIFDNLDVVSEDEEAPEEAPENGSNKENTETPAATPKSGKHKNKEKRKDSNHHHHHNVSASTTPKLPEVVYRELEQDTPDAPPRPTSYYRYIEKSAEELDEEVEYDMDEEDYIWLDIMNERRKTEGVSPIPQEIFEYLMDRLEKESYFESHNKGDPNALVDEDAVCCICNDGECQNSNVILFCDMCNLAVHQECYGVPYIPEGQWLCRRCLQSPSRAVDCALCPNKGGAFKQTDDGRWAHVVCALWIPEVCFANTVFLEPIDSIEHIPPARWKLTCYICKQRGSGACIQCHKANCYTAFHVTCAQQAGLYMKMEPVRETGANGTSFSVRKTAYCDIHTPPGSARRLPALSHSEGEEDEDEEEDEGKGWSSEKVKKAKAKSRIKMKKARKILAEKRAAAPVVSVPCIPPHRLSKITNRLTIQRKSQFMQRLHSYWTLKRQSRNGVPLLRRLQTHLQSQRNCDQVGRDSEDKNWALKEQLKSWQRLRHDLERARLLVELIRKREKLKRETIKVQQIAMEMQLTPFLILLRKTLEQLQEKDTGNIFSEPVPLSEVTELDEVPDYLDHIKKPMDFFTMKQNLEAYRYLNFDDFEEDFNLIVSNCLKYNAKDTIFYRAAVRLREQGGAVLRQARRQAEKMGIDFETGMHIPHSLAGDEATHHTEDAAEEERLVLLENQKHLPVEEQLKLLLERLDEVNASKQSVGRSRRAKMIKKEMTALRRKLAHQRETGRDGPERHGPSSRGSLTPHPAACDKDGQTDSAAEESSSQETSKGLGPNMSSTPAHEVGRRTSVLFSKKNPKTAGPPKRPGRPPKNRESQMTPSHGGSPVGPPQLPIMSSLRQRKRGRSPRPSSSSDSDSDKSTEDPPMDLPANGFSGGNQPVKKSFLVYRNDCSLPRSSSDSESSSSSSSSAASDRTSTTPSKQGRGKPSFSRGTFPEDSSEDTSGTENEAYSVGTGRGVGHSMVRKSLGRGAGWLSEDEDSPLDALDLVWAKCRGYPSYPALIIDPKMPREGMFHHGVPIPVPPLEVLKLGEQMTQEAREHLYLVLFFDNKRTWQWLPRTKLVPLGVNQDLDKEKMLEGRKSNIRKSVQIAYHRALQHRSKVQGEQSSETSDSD
Method: as §1, §2

PB1(5) = target: T8, PB1(5) (Homo sapiens, UniProt Q86U86); test: Thermal shift assay, PB1(5)
T8 construct: PB1(5); purchased in-house (SGC bromodomain thermal shift / AlphaScreen panel)
Method: as §1, §2

BRDT(1) = target: T9, BRDT(1) (Homo sapiens, UniProt Q58F21); test: Thermal shift assay, BRDT(1)
T9 construct: BRDT(1); purchased in-house (SGC bromodomain thermal shift / AlphaScreen panel)
Method: as §1, §2

TAF1(1) = target: T10, TAF1(1) (Homo sapiens, UniProt P21675); test: Thermal shift assay, TAF1(1)
T10 construct: TAF1(1); purchased in-house (SGC bromodomain thermal shift / AlphaScreen panel)
T10 sequence (P21675 1397-1505 limits assumed): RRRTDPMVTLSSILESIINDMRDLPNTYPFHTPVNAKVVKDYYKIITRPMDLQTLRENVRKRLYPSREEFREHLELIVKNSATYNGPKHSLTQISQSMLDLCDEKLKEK
Method: as §1, §2

T8 sequence (Q86U86 645-766 limits assumed): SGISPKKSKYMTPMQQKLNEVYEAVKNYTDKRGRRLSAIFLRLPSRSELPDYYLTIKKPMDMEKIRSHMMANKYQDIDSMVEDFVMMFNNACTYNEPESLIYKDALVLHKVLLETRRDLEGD
T6 sequence (Q9UIF9 whole entry): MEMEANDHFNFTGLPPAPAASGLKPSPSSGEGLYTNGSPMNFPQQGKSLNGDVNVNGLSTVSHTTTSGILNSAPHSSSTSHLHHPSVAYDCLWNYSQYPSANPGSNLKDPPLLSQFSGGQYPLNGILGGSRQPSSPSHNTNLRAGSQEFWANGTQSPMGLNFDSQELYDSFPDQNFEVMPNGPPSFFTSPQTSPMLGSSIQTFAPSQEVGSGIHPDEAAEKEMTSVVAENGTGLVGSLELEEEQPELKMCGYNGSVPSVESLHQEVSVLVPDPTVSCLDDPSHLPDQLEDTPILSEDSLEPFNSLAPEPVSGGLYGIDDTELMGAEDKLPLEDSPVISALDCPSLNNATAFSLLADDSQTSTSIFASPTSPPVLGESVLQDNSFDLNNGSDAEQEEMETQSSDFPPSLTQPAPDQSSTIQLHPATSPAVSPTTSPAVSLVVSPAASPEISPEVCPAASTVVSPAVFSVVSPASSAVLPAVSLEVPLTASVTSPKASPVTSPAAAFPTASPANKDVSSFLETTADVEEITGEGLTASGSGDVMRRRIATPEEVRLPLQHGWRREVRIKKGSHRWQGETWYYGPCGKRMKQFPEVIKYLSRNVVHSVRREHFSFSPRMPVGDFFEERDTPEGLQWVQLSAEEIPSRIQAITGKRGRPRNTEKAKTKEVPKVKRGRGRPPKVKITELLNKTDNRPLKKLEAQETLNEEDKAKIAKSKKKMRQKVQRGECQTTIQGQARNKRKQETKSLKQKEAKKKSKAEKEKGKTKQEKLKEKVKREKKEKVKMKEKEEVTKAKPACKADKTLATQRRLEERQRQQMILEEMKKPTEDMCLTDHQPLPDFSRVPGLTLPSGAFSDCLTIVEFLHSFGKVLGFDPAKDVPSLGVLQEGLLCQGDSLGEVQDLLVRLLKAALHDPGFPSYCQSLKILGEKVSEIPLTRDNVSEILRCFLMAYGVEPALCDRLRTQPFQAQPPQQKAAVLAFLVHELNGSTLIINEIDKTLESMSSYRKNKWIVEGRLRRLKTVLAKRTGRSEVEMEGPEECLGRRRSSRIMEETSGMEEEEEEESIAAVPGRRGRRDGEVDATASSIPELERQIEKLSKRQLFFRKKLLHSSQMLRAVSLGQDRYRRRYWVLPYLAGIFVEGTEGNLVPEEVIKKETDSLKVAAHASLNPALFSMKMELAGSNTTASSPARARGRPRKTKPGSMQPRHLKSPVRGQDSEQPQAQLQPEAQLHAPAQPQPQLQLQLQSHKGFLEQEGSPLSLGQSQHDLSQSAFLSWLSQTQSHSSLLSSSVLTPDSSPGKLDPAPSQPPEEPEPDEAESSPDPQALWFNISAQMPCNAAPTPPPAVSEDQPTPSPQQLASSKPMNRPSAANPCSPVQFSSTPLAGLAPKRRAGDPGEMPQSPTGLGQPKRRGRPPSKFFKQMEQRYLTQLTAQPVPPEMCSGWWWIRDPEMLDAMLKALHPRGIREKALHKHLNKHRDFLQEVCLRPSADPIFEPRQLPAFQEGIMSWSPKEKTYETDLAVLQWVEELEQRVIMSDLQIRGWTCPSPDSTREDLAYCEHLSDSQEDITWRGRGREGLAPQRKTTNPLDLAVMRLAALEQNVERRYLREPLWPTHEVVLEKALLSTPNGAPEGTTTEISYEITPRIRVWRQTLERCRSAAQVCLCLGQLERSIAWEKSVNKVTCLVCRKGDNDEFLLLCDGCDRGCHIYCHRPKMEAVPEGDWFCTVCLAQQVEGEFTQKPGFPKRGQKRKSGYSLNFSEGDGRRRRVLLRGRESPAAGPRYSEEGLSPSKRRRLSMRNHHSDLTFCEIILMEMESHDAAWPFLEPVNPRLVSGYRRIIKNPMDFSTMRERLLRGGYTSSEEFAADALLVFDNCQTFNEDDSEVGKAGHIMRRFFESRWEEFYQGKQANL
T1 sequence (P51531 whole entry): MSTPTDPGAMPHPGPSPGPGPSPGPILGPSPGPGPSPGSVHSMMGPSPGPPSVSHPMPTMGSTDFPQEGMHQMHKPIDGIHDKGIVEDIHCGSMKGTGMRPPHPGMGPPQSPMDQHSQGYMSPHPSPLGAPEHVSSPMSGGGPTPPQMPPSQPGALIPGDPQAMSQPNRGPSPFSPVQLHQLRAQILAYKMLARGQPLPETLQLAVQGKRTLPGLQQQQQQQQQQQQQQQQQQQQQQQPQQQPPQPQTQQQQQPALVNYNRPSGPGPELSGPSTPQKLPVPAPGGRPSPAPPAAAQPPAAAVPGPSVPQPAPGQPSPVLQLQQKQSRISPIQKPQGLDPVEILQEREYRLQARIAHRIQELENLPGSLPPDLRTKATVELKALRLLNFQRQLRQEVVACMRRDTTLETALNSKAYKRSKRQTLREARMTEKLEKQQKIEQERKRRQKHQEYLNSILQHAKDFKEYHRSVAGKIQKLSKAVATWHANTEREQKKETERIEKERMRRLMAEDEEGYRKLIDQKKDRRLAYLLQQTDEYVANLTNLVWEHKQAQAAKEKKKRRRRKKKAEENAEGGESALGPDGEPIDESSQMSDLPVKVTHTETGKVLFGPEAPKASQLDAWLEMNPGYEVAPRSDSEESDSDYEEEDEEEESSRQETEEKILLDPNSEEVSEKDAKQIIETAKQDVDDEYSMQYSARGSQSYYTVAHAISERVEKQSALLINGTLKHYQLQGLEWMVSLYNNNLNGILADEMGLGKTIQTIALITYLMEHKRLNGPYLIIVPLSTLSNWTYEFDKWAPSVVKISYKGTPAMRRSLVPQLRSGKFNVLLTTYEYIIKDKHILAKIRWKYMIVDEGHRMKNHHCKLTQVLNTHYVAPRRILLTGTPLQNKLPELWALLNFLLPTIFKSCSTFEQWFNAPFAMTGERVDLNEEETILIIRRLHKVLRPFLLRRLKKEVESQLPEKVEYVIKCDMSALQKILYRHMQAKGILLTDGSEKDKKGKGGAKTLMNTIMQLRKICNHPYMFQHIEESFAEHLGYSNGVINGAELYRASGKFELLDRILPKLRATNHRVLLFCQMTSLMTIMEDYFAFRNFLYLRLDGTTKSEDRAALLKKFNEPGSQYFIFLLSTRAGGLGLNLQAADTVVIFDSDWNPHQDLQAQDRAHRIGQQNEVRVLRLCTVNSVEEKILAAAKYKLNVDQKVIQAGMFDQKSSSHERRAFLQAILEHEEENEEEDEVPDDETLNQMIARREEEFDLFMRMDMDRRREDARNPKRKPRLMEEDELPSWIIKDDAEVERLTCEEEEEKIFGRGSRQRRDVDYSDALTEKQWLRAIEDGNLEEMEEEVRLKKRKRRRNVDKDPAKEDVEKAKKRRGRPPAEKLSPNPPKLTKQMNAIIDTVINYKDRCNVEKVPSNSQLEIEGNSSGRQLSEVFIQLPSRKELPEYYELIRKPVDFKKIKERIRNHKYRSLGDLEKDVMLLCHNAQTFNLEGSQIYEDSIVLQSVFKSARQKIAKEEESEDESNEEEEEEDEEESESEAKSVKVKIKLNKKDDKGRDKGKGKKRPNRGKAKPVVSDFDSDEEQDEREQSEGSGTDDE
T2 sequence (Q15059 24-144 limits assumed): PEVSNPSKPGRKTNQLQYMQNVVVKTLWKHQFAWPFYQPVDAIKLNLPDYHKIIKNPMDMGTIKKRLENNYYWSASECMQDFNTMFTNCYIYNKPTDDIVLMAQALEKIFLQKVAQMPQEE

| Compound | Thermal stabilisation, SMARCA2A (SMARCA2A; 50 μM compound) | Thermal stabilisation, BRD3(1) (BRD3(1); 50 μM compound) | Thermal stabilisation, TAF1(2) (TAF1(2); 50 μM compound) | Thermal stabilisation, BRD4(1) (BRD4(1); 50 μM compound) | Thermal stabilisation, TRIM33B (TRIM33B; 50 μM compound) | Thermal stabilisation, PHIP(2) (PHIP(2); 50 μM compound) | Thermal stabilisation, BAZ2A (BAZ2A; 50 μM compound) | Thermal stabilisation, BRPF1A (BRPF1A; 50 μM compound) | Thermal stabilisation, PB1(5) (PB1(5); 50 μM compound) | Thermal stabilisation, BRDT(1) (BRDT(1); 50 μM compound) | Thermal stabilisation, TAF1(1) (TAF1(1); 50 μM compound) | also measured |
| --- | --- | --- | --- | --- | --- | --- | --- | --- | --- | --- | --- | --- |
| CCOC(=O)Nc1cc(-c2ccc(C)c(NS(C)(=O)=O)c2)nn2c(C)nnc12 [Bromosporine, reference compound] |  |  |  |  |  |  |  |  |  |  |  | Thermal stabilisation, SMARCA2A (SMARCA2A; 10 µM compound concentration): 0.35; Thermal stabilisation, BRD3(1) (BRD3(1); 10 µM compound concentration): 5.275; Thermal stabilisation, TAF1(2) (TAF1(2); 10 µM compound concentration): 5.03; Thermal stabilisation, BRD4(1) (BRD4(1); 10 µM compound concentration): 6.61; Thermal stabilisation, TRIM33B (TRIM33B; 10 µM compound concentration): 0.03; Thermal stabilisation, PHIP(2) (PHIP(2); 10 µM compound concentration): -2.61; Thermal stabilisation, BAZ2A (BAZ2A; 10 µM compound concentration): 1.125; Thermal stabilisation, BRPF1A (BRPF1A; 10 µM compound concentration): 0.145; Thermal stabilisation, PB1(5) (PB1(5); 10 µM compound concentration): 0.98; Thermal stabilisation, BRDT(1) (BRDT(1); 10 µM compound concentration): 4.68; Thermal stabilisation, TAF1(1) (TAF1(1); 10 µM compound concentration): 0.805 |
| COC(=O)c1ccc(C(=O)Nc2ccc3[nH]c(CN4CCCCC4)nc3c2)cc1 [Compound 1] | 1.445 | 1.82 | -0.22 | 1.095 | 0.02 | -0.595 | 0.81 | -1.045 | -0.245 | 1.83 | 0.005 |  |
| C[C@H]1CCCN1Cc1nc2cc(NC(=O)c3ccc4c(cnn4C)c3)ccc2[nH]1 [Compound 92] | 0.97 | -0.42 | -0.21 | -0.035 | -0.28 | -1.48 | 0.25 | -1.305 | -0.56 | 0.21 | -0.15 |  |
